In patent publication US20240424147A1, “PHTHALOCYANINE-LOADED MICELLES FOR THE DIRECT VISUALIZATION OF TUMORS” (THE TRUSTEES OF THE UNIVERSITY OF PENNSYLVANIA, priority 2022, published 2024):

Columns and labels:
[1] = Photothermal stability, repeated heating and cooling cycles; assay type: physicochemical; details: three 10-min heating/cooling cycles, 808 nm, 9.4 uM
Method: (§1) A total of twenty-eight phthalocyanine and nine naphthalocyanine dyes were loaded into polymeric micelles, composed of the amphiphilic diblock copolymer PEGPCL, via oil-in-water emulsions (FIGS. 16A, 16B, 16C). The nanoparticles were characterized by UV-absorption spectroscopy and dynamic light scattering. The photothermal heating potential and photothermal stability of nanoparticles were assessed by irradiating samples using an 808 nm laser for 10 minutes at 0.75 W. Photoacoustic imaging signal was assessed by loading micelles into a phantom submerged in water. The top 5 naphthalocyanines and top 4 phthalocyanines, based on PA and heating properties, were used for in vitro and in vivo studies. The cytotoxicity and photocytotoxicity of the various micelles were assessed with ovarian cancer ID8-luciferase cells and breast cancer 4T1 cells using an MTS cell proliferation assay.
Various Pc and Nc-loaded micelles (9.4 uM) were heated multiple times, using a laser (0.75 W/cm2), in 10-min increments. (FIG. 22) The samples were allowed to cool to room temperature between successive rounds.

[2] = free dye; cited from earlier work
[3] = Photothermal heating of micelles in water under 808 nm laser; assay type: physicochemical; details: 808 nm laser 0.75 W/cm2, 10 min
Excerpt: FIGS. 1A-1H show the preparation, characterization and uses of the PC dye micelles according to the invention. […] Infrared thermal images of water and NiPC micelle solution under laser irradiation.
as §1
Pc and Nc-loaded micelles (9.4 uM dye concentration) and controls (empty micelles and water) were prepared and then irradiated at 808 nm (0.75 W/cm2) continuously for 10 min; heating of each sample was measured as a function of time. (FIG. 21)

[4] = system: 4T1 triple-negative breast flank tumors; experiment: Direct visualization of 4T1 flank tumors after injection of micelles (SBR by ImageJ); assay type: in vivo, BALB/c mice; details: 10 mg/kg intravenous (retro-orbital), 24 h where stated
Method: Photographs were quantified using ImageJ. Normalized signal-to-background (SBR) measurements were made using the tumor (i.e., the intensity of the blue color) and its surrounding tissue as background after 24 h of PCs loaded micelles (10 mg/kg) and MB (10 mg/kg) intravenous (retro-orbital) injection (n=3).
To identify the PC-loaded micelle formulation that is best able to differentiate tumors from surrounding healthy tissues via direct visualization, BALB/c mice bearing syngeneic 4T1 triple-negative breast flank tumors were injected intravenously with the various micelle formulations (10 mg/kg based on the dye concentration, 24 h before evaluation). […] Normalized signal-to-background (SBR) measurements were calculated in ImageJ using the intensity of the blue color within the tumor and its surrounding tissue, respectively.
4T1 tumor cells (2×10^6 cells in 100 ul) were implanted in the right flank of BALB/c mice (aged 6 weeks). […]
To assess blue nanoparticle accumulation in the breast and spontaneous colorectal mice model, tumors were evaluated visually, and normalized signal-to-background (SBR) was quantitated for each tumor relative to the surrounding tissue by measuring the intensity of blue-green colors via ImageJ. […] Tissues were placed in microscope glass slides, imaged fluorescence in the Cy5 filter (excitation 628-40 nm, emission 692-40 nm), and analyzed via ImageJ. […]

[5] = PCs nanoparticles retention study: dialysis against 20 mM sodium cholate; assay type: physicochemical; details: 24 h, in words
Method: 100 μL of PCs nanoparticles was diluted in 3 mL of 20 mM sodium cholate solution. Dialysis was performed with dialysis tubing (12,000-14,000 MWCO, Fisher) into 500 mL of 20 mM sodium cholate buffer at room temperature. The buffer was changed after 4 hours. The absorbance of the solutions was recorded before and after (24 hours) dialysis to determine dye retention percentage. […] Methylene blue (MB) is the only water-soluble blue dye that is used in this study.
PCs nanoparticles were synthesized using amphiphilic diblock copolymer (PEG-PCL) (FIG. 1A, phthalocyanine dyes used in this study are shown in FIGS. 4A-4F, see methods in Example 1). Due to the hydrophobic nature of PCs, they tend to aggregate in the aqueous medium (intermolecular interaction (π-π stacking)). […] The size of nanoparticles was determined with dynamic light scattering (DLS). […] The release of the PCs from PCs loaded micelles was assessed in sodium cholate buffer by monitoring leakage of PCs dyes as a function of time. […]
100 μL of PCs nanoparticles was diluted in 3 mL of 20 mM sodium cholate solution. […] The absorbance of the solutions was recorded before and after (24 hours) dialysis to determine dye retention percentage.

| Structure (SMILES) | heating ability after repeated irradiation [1] | clearance upon injection [2] | PTT performance compared with other dyes [3] | tumor contrast / dye accumulation by direct visualization [4] | release from the dialysis tubing [5] |
| --- | --- | --- | --- | --- | --- |
| CC1(C)C(/C=C/C=C/C=C/C=C2\N(CCCCS(=O)(=O)O)c3ccc4ccccc4c3C2(C)C)=[N+](CCCCS(=O)(=O)[O-])c2ccc3ccccc3c21 [ICG, indocyanine green] | lost its ability to heat | cleared within minutes upon injection | – | – | – |
| CCCCOc1c2c(c(OCCCC)c3ccccc13)-c1nc-2nc2[n-]c(nc3nc(nc4[n-]c(n1)c1c(OCCCC)c5ccccc5c(OCCCC)c41)-c1c-3c(OCCCC)c3ccccc3c1OCCCC)c1c(OCCCC)c3ccccc3c(OCCCC)c21.[Cu+2] [CuNc Octa, Copper(II) 5,9,14,18,23,27,32,36-octabutoxy-2,3-naphthalocyanine] | – | – | outperforms all previously tested Pc/Nc dyes for PTT | – | – |
| CN(C)c1ccc2nc3ccc(=[N+](C)C)cc-3sc2c1 [MB, Methylene blue] | – | cleared within minutes upon injection | – | no accumulation was observed | released entirely |
